Measurements taken from patent US8796288B2, “Anhydrous crystalline forms of N-[1-(2-ethoxyethyl)-5-(N-ethyl-N-methylamino)-7-(4-methylpyridin-2-yl-amino)-1H-pyrazolo[4,3-d]pyrimidine-3-carbonyl]methanesulfonamide” (Pfizer Inc., priority 2005, dated 2014).
“Also recorded” adds a separate entry of the source.

What was measured:
[1] = Stability of Form A and Form B (slurry conversion in methanol with PXRD, DSC comparison); type: physicochemical
Experimental: Form A, Form B and Form C were each analyzed using differential scanning calorimetry (DSC). A TA Instruments Q1000 differential scanning calorimeter was used to perform each analysis. Each sample was heated from 25 to 300° C. at 20° C. per minute in an aluminium pan with the lid laid on top, with a nitrogen purge gas. The temperature of the melting endothermic peak was reported as the melting point.
Approximately 25 mg of Form A (see Example 3) was slurried at room temperature with 1 ml of methanol. […] A small sample was removed from the slurry.
The thermodynamically stabilities of Form A and Form B were compared as described below. First, approximately 25 mg of Form A was slurried in approximately 1 ml of methanol. […] A small sample was removed from the slurry.

[2] = Stability of Form B and Form C (bridging slurry studies, PXRD analysis); type: physicochemical
Experimental: Bridging studies were performed in the following solvent systems to determine the relative thermodynamic stabilities of Form B and Form C: (1) THF/H2O (50:50 volume/volume), (2) methyl ethyl ketone (“MEK”), (3) methanol, and (4) methanol/dichloromethane (DCM) (50:50 volume/volume). The MEK study was performed at room temperature while the studies with the other three solvent systems were performed at both 40° C. and 60° C. In each study a suspension of Form B in the appropriate solvent system was prepared. Approximately 10 mg of Form C was then added to each suspension. The suspensions were then allowed to slurry at the appropriate temperature for a specific period of time. The solvent system, temperature of the solvent system, and period of time over which the suspension was allowed to slurry are set forth below for each study: • (1) Study A: Slurried for 3 days in MEK at room temperature; • (2) Study B: Slurried for 3 days in THF/H2O (50:50) at 40° C.; • (3) Study C: Slurried for 3 days in THF/H2O (50:50) at 60° C.; • (4) Study D: Slurried for 21 days in Methanol at 40° C.; • (5) Study E: Slurried for 21 days in Methanol at 60° C.; • (6) Study F: Slurried for 5 days in Methanol/DCM at 40° C.; and • (7) Study G: Slurried for 21 days in Methanol/DCM at 60° C.
At the end of the specified time period, a sample was removed from each slurry and analyzed by PXRD. […]

## CCOCCn1nc(C(=O)NS(C)(=O)=O)c2nc(N(C)CC)nc(Nc3cc(C)ccn3)c21 [Form A, N-[1-(2-ethoxyethyl)-5-(N-ethyl-N-methylamino)-7-(4-methylpyridin-2-yl-amino)-1H-pyrazolo[4,3-d]pyrimidine-3-carbonyl]methanesulfonamide]
[1]; approximately 25 mg slurried in approximately 1 ml of methanol
  crystalline form found by PXRD after slurrying: Form B

## CCOCCn1nc(C(=O)NS(C)(=O)=O)c2nc(N(C)CC)nc(Nc3cc(C)ccn3)c21 [Form B, N-[1-(2-ethoxyethyl)-5-(N-ethyl-N-methylamino)-7-(4-methylpyridin-2-yl-amino)-1H-pyrazolo[4,3-d]pyrimidine-3-carbonyl]methanesulfonamide]
[2]; temperatures above the crossover point
  relative thermodynamic stability of Form B and Form C above the crossover point: more thermodynamically stable than Form C; also recorded: most thermodynamically stable form
[1]; from slurry conversion analysis and DSC analysis, ambient as well as elevated temperatures
  relative thermodynamic stability of Form A and Form B: more thermodynamically stable than Form A

## CCOCCn1nc(C(=O)NS(C)(=O)=O)c2nc(N(C)CC)nc(Nc3cc(C)ccn3)c21 [Form C, N-[1-(2-ethoxyethyl)-5-(N-ethyl-N-methylamino)-7-(4-methylpyridin-2-yl-amino)-1H-pyrazolo[4,3-d]pyrimidine-3-carbonyl]methanesulfonamide]
[2]; temperatures below the crossover point (including ambient)
  relative thermodynamic stability of Form B and Form C below the crossover point: more thermodynamically stable than Form B; also recorded: most thermodynamically stable form
